Patent US7528150B2, “Urea derivatives having vanilloid receptor antagonist activity” (Glaxo Group Limited, priority 2003, dated 2009)

Target: T1, human VR1 (Homo sapiens, UniProt Q8NER1)
T1 construct: expressed in transfected cells; host or cells: astrocytoma 1321N1 cells, stably transfected
Assay: FLIPR based calcium assay, antagonism of capsaicin response in 1321N1 cells stably expressing human VR1
Assay type: cell-based
Details: transfected astrocytoma 1321N1 cells expressing human VR1; capsaicin as agonist; pKb generated from IC50 using the Cheng-Prusoff equation
Protocol: The screen used for the compounds of this invention was based upon a FLIPR based calcium assay, similar to that described by Smart et al. (British Journal of Pharmacology, 2000, 129, 227-230). Transfected astrocytoma 1321N1 cells, stably expressing human VR1, were seeded into FLIPR plates at 25,000 cells/well (96-well plate) and cultured overnight.
The cells were subsequently loaded in medium containing 4 μM Fluo-3 AM (Molecular Probes) for 2 h, at room temperature, in the dark. The plates were then washed 4 times with Tyrode containing 1.5 mM calcium, without probenecid. The cells were pre-incubated with compound or buffer control at room temperature for 30 min. Capsaicin (Sigma) was then added to the cells. Compounds having antagonist activity against the human VR1 were identified by detecting differences in fluorescence when measured after capsaicin addition, compared with no compound buffer controls. Thus, for example, in the buffer control capsaicin addition results in an increase in intracellular calcium concentration resulting in fluorescence. A compound having antagonist activity blocks the capsaicin binding to the receptor, there is no signalling and therefore no increase in intracellular calcium levels and consequently lower fluorescence. pKb values are generated from the IC50 values using the Cheng-Prusoff equation.

T1 sequence (Q8NER1 whole entry): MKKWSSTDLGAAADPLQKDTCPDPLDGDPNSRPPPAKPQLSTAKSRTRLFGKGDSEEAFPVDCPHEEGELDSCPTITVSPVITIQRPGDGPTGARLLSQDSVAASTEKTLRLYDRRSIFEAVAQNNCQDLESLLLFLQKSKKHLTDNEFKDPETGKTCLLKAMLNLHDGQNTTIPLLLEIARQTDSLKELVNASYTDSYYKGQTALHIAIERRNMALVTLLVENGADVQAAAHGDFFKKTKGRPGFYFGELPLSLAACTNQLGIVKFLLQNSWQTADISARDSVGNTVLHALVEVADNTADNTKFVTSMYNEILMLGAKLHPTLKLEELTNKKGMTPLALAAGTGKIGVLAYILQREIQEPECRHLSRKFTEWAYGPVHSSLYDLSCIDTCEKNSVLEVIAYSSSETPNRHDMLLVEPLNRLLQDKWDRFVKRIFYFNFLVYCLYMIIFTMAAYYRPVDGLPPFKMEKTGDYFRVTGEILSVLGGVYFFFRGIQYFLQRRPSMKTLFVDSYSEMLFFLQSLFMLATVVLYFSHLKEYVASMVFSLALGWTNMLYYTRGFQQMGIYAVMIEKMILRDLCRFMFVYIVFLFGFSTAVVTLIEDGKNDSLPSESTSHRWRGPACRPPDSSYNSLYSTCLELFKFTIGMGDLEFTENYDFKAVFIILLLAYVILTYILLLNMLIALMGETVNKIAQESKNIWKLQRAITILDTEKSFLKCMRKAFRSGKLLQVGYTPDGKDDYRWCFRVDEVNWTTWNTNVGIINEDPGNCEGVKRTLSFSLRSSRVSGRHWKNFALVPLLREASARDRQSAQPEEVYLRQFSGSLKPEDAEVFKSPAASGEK

Row | Kb [nM] | SMILES
1 | < 100 | Cc1nccc2c(NC(=O)NC3CN(Cc4ccccc4C(F)(F)F)C3)cccc12 [Example 22]
2 | < 100 | Cc1cc2c(NC(=O)N[C@@H]3CCN(Cc4ccc(C(F)(F)F)cc4)C3)cccc2cn1 [Example 17]
3 | < 100 | Cc1cc2c(NC(=O)N[C@@H]3CCN(Cc4cccc(C(F)(F)F)c4)C3)cccc2cn1 [Example 16]
4 | < 100 | Cc1cc2c(NC(=O)N[C@@H]3CCN(Cc4cccc(Cl)c4)C3)cccc2cn1 [Example 14]
